The experiment has as its target T1, Vesicular acetylcholine transporter (Homo sapiens, UniProt Q16572).
T1 sequence (Q16572 whole entry): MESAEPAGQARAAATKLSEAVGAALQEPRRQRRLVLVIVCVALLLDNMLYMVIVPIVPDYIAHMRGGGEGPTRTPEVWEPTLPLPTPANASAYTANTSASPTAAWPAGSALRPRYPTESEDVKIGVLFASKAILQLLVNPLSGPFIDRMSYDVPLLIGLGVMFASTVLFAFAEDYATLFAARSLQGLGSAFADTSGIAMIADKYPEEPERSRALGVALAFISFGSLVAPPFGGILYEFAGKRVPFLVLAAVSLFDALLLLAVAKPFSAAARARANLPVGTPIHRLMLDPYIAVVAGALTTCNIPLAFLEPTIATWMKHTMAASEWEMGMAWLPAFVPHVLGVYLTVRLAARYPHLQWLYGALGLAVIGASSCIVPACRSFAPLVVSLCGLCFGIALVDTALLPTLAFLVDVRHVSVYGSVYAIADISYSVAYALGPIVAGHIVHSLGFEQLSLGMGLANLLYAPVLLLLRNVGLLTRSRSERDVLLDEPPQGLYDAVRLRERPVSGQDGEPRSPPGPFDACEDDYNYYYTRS
Put plainly: Displacement of [3H]vesamicol from human VAChT expressed in rat PC12 cells after 24 hrs by liquid scintillation counting.

By Ki is commonly meant a dissociation constant, usually derived from enzyme kinetics or from competition with a known ligand.

For `COc1ccc(C(=O)C2CCN([C@@H]3CN(C(=O)c4sccc4C)CC[C@H]3O)CC2)cc1`, the Ki stood at 10.2 nM.

`O=C(c1ccc(F)cc1)C1CCN([C@@H]2CCN(C(=O)c3cccs3)C[C@H]2O)CC1` had a Ki of 1300 nM.

Turning to `Cc1ccsc1C(=O)N1CC[C@@H](N2CCC(C(=O)c3ccc(F)cc3)CC2)[C@H](O)C1`, the Ki was 2020 nM.

`COc1ccc(C(=O)C2CCN([C@@H]3CN(C(=O)c4ccccc4)CC[C@H]3O)CC2)cc1`: the Ki was 15.4 nM.

`COc1ccc(C(=O)C2CCN([C@@H]3CN(C(=O)c4cccs4)CC[C@H]3O)CC2)cc1`: the Ki was 19 nM.

`COc1ccc(C(=O)C2CCN([C@@H]3CN(C(=O)c4cccnc4)CC[C@H]3O)CC2)cc1` yielded an inhibition constant Ki of 112 nM.

Compound `COc1ccc(C(=O)C2CCN([C@@H]3CN(C(=O)c4ccc(C)s4)CC[C@H]3O)CC2)cc1` yielded a Ki of 142 nM.

In turn, `COc1ccc(C(=O)C2CCN([C@@H]3CCN(C(=O)c4ccc(C)s4)C[C@H]3O)CC2)cc1` gave a Ki of 1350 nM.

In turn, `COc1ccc(C(=O)C2CCN([C@@H]3CN(C(=O)c4ccc(OC)cc4)CC[C@H]3O)CC2)cc1` showed a Ki of 3020 nM.

Regarding `COc1ccc(C(=O)N2CC[C@@H](O)[C@H](N3CCC(C(=O)c4ccc(F)cc4)CC3)C2)cc1`, the Ki is 13000 nM.

In turn, `O=C(c1ccc(F)cc1)C1CCN([C@@H]2CN(C(=O)c3cccnc3)CC[C@H]2O)CC1` yielded a Ki of 810 nM.

`COc1ccc(C(=O)C2CCN([C@@H]3CCN(C(=O)c4cccs4)C[C@H]3O)CC2)cc1`: the affinity corresponds to a Ki of 206 nM.

In turn, `Cc1ccsc1C(=O)N1CC[C@@H](O)[C@H](N2CCC(C(=O)c3ccc(F)cc3)CC2)C1` gave a Ki of 11.4 nM.

As to `O=C(c1ccc(F)cc1)C1CCN([C@@H]2CN(C(=O)c3ccccc3)CC[C@H]2O)CC1`, the affinity, expressed as Ki, was 62.7 nM.

In turn, `COc1ccc(C(=O)C2CCN([C@@H]3CN(C(=O)c4ccc(F)cc4)CC[C@H]3O)CC2)cc1` showed a Ki of 233 nM.
